Here are results for eleven compounds from patent US20210198269A1, “INHIBITORS OF GLUCOSE TRANSPORTERS (GLUTs)” (LEAD DISCOVERY CENTER GMBH, priority 2018, published 2021).

Holding throughout (assay type): cell-based
One assay deals with T1, GLUT3 (Homo sapiens, UniProt P11169).
T1 construct: host or cells: DLD-1-GLUT1(-/-) cells
T1 sequence (P11169 1-496): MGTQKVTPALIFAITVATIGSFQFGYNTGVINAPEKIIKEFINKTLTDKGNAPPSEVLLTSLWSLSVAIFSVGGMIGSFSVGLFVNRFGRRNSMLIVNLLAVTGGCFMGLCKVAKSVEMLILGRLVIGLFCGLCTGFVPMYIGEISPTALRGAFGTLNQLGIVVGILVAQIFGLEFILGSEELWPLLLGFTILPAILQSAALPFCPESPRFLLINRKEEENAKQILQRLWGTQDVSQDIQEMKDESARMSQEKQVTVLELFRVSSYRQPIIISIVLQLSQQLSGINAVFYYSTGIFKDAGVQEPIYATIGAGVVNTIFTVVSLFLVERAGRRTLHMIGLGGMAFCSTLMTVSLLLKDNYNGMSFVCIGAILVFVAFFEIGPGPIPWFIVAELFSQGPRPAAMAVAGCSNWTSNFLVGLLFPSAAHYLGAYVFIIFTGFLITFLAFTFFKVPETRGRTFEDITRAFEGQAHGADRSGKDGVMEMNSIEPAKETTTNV
Description: GLUT3 transporter activity assay (2-DG uptake) in DLD-1-GLUT1-/- cells. The settings on record: DLD-1-GLUT1-/- cell line; read-out: GLUT3 inhibitory activity (IC50). The text has this:
(§1) GLUT 1, 2, 3 and 4 Transporter Activity Assays
(§2) Assays were based on the specificity assays reported by Kapoor et al., Proceedings of the National Academy of Sciences 2016, 113 (17) 4711-4716. For GLUT1, GLUT2, GLUT3 and GLUT4 specificity testing DLD1, CHO-hGLUT2, DLD-1-GLUT1−/− and CHO-hGLUT4 cell lines were used.
(§3) Assay protocols for 2-deoxy-Glucose (2-DG) Uptake Assay with DLD1 or DLD1-Glut1(−/−) cells or 7,000 CHOK1-SLC2A4 cells lines:
(§4) 14,000 DLD1 or DLD1-Glut1(−/−) cells or 7,000 CHOK1-SLC2A4 cells were seeded in black, clear bottom 384-well plates in glucose- and phenolred-free RPMI1640 medium supplemented with 1% FCS and 2 mM L-glutamine and allowed to attach overnight. Next day, cells were washed and incubated with compounds or DMSO and 1 mM 2-DG in glucose- and phenolred-free RPMI1640 medium for 30 min. Cells were then washed and lysed in 0.06 M HCl and 1% CHAPS for 15 min at 65° C. The amount of 2-DG in the lysate was determined by means of enzyme-coupled assay. For this 16 U/mL glucose-6-phosphate dehydrogenase, 0.2 U/mL diaphorase, 0.1 mM NADP^+ and 10 μM resazurin were added to the lysates. Resorufin fluorescence was determined as a measure of 2-DG uptake at ex/em 535/590 nm with a Victor Multilabel plate reader (Perkin Elmer). Blank values were subtracted from all readings and values were normalized to the DMSO control.

A further assay concerns the target T2, GLUT1 (Homo sapiens, UniProt P11166).
T2 construct: host or cells: DLD-1 (DLD1) cells
T2 sequence (P11166 1-492): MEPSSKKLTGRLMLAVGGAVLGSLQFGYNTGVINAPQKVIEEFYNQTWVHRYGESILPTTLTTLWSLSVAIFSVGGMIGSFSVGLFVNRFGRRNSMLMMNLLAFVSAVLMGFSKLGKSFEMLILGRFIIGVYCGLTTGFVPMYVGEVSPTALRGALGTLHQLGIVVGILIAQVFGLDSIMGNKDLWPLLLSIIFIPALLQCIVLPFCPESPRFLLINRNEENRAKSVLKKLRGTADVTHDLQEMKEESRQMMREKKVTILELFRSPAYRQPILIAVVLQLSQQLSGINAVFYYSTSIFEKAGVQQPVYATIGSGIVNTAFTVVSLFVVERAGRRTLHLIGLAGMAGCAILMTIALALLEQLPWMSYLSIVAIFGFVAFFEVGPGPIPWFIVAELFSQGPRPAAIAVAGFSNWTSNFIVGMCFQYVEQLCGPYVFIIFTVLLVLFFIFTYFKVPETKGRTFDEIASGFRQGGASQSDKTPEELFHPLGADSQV
Put plainly: GLUT1 transporter activity assay (2-DG uptake) in DLD1 cells. The settings on record: DLD1 cell line; read-out: GLUT1 inhibitory activity (IC50).
From the text: as §1, §2, §3, §4

The target of a further assay is T3, GLUT4 (Homo sapiens, UniProt P14672).
T3 sequence (P14672 1-509): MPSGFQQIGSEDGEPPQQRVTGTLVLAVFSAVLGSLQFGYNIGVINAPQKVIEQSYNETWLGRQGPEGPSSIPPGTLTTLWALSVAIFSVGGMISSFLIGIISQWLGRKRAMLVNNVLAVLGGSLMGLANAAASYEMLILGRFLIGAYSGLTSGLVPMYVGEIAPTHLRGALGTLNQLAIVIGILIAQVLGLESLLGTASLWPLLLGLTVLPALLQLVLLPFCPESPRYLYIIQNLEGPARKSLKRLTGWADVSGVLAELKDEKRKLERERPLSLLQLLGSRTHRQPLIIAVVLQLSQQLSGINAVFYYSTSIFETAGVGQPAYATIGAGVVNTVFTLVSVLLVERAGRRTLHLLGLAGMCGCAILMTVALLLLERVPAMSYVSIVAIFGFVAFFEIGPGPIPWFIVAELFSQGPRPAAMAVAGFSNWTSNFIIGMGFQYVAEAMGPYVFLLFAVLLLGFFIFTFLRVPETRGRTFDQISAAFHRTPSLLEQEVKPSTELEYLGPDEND
Put plainly: GLUT4 transporter activity assay (2-DG uptake) in CHO-hGLUT4 cells. The settings on record: CHO-hGLUT4 cell line; read-out: GLUT4 inhibitory activity (IC50). The method, then:
CHOK1-SLC2A4 cells were generated by transfection of CHOK1 cells with pCMV6-Entry-GLUT4 (Origene #SC125240) using Lipofectamin2000 according to the supplier's instructions. Briefly, 1.5E5 cells/well CHOK1 cells were seeded in 6-well cell culture plates. After overnight incubation, DNA-lipid complexes (2 μg plasmid DNA, DNA:lipid ratio 1:10) were prepared in OptiMEM and then added to the cells. After 5 days incubation, 800 μg G418 was added to the culture medium to generate a stable polyclone. For monoclone selection, single cells were re-plated in 96-well plates, expanded and selected by transgene overexpression and functional performance.
as §1, §2, §3, §4

By IC50 is commonly meant the point on the concentration scale where inhibition reaches its midpoint. On to `Cc1ccc(CCNC(=O)c2cccc(N3C(=O)NC4CC3(C)Oc3c(OCc5cncnc5)cccc34)c2)cc1` (stereo not drawn) [Compound A13, 3-(2-Methyl-4-oxo-10-(pyrimidin-5-ylmethoxy)-5,6-dihydro-2H-2,6-methanobenzo[g][1,3,5]oxadiazocin-3(4H)-yl)-N-(4-methylphenethyl)benzamide], for which the IC50 on GLUT3 is 0.3 to 1 µM; on GLUT1 it was 0.3 to 1 µM; at GLUT4 it was more than 25 µM.
With `CC12CC(NC(=O)N1c1cccc(C(=O)NC3Cc4ccccc4C3)c1)c1cccc(OCc3ccccc3)c1O2` (stereo not drawn) [Compound A24, 3-(10-(benzyloxy)-2-methyl-4-oxo-5,6-dihydro-2H-2,6-methanobenzo[g][1,3,5]oxadiazocin-3(4H)-yl)-N-(2,3-dihydro-1H-inden-2-yl)benzamide], the figures for the IC50 on GLUT3, on GLUT1 and on GLUT4 were 4 to 10 µM, 10 to 25 µM and 10 to 25 µM, respectively.
For the compound `Cc1ccc(CCNC(=O)c2cccc(N3C(=O)NC4CC3(C)Oc3c(OCc5ccncc5)cccc34)c2)cc1` (stereo not drawn) [Compound A09, 3-(2-Methyl-4-oxo-10-(pyridin-4-ylmethoxy)-5,6-dihydro-2H-2,6-methanobenzo[g][1,3,5]oxadiazocin-3(4H)-yl)-N-(4-methylphenethyl)benzamide], the IC50 on GLUT3 is 0.3 to 1 µM; at GLUT1 it was not above 0.3 µM; at GLUT4 it was 4 to 10 µM.
Consider `Cc1ccc(CCNC(=O)c2cccc(N3C(=O)NC4CC3(C)Oc3c(OCc5cccnc5N)cccc34)c2)cc1` (stereo not drawn) [Compound A12, 3-(10-((2-Aminopyridin-3-yl)methoxy)-2-methyl-4-oxo-5,6-dihydro-2H-2,6-methanobenzo[g][1,3,5]oxadiazocin-3(4H)-yl)-N-(4-methylphenethyl)benzamide], for which the IC50 was 1 to 4 µM on GLUT3, 1 to 4 µM at GLUT1 and more than 25 µM at GLUT4.
With `CCNC(=O)c1cccc(N2C(=O)NC3CC2(C)Oc2c(OCc4ccccc4)cccc23)c1` (stereo not drawn) [Compound A38, 3-(10-(benzyloxy)-2-methyl-4-oxo-5,6-dihydro-2H-2,6-methanobenzo[g][1,3,5]oxadiazocin-3(4H)-yl)-N-(ethyl)benzamide], the IC50 on GLUT3 is 4 to 10 µM; at GLUT1 it was 10 to 25 µM; at GLUT4 it was 10 to 25 µM.
Take `Cc1ccc(CCNC(=O)c2cccc(N3C(=O)NC4CC3(C)Oc3c(OCC5CC5)cccc34)c2)cc1` (stereo not drawn) [Compound A08, 3-(10-(Cyclopropylmethoxy)-2-methyl-4-oxo-5,6-dihydro-2H-2,6-methanobenzo[g][1,3,5]oxadiazocin-3(4H)-yl)-N-(4-methylphenethyl)benzamide]: the values for the IC50 on GLUT3, on GLUT1 and at GLUT4 were 0.3 to 1 µM, not above 0.3 µM and 1 to 4 µM, respectively.
Turning to `CC12CC(NC(=O)N1c1cccc(C(=O)N3CCc4ccccc43)c1)c1cccc(OCc3ccccc3)c1O2` (stereo not drawn) [Compound A19, 10-(benzyloxy)-3-(3-(indoline-1-carbonyl)phenyl)-2-methyl-5,6-dihydro-2H-2,6-methanobenzo[g][1,3,5]oxadiazocin-4(3H)-one], the IC50 is 1 to 4 µM on GLUT3, 10 to 25 µM at GLUT1 and more than 25 µM at GLUT4.
The matching figures for `Cc1ccc(CCOC(=O)c2cccc(N3C(=O)NC4CC3(C)Oc3c(OCc5ccccc5)cccc34)c2)cc1` (stereo not drawn) [Compound A22, 4-methylphenethyl 3-(10-(benzyloxy)-2-methyl-4-oxo-5,6-dihydro-2H-2,6-methanobenzo[g][1,3,5]oxadiazocin-3(4H)-yl)benzoate]: 1 to 4 µM, 4 to 10 µM and more than 25 µM.
In the same order, the values of `Cc1ccc(CCNC(=O)c2cccc(N3C(=O)NC4CC3(C)Oc3c(OCc5cncc(C)c5)cccc34)c2)cc1` (stereo not drawn) [Compound A14, 3-(2-Methyl-10-((5-methylpyridin-3-yl)methoxy)-4-oxo-5,6-dihydro-2H-2,6-methanobenzo[g][1,3,5]oxadiazocin-3(4H)-yl)-N-(4-methylphenethyl)benzamide] are not above 0.3 µM, not above 0.3 µM and 1 to 4 µM.
In the same order, the values of `CC12CC(NC(=O)N1c1cccc(C(=O)NC3CCc4ccccc4C3)c1)c1cccc(OCc3ccccc3)c1O2` (stereo not drawn) [Compound A26, 3-(10-(benzyloxy)-2-methyl-4-oxo-5,6-dihydro-2H-2,6-methanobenzo[g][1,3,5]oxadiazocin-3(4H)-yl)-N-(1,2,3,4-tetrahydronaphthalen-2-yl)benzamide] are 4 to 10 µM, more than 25 µM and 10 to 25 µM.
With `CC12CC(NC(=O)N1c1cccc(C(=O)NCc3ccccc3)c1)c1cccc(OCc3ccccc3)c1O2` (stereo not drawn) [Compound A39, 3-(10-(benzyloxy)-2-methyl-4-oxo-5,6-dihydro-2H-2,6-methanobenzo[g][1,3,5]oxadiazocin-3(4H)-yl)-N-(benzyl)benzamide], the IC50 lay within 4 to 10 µM on GLUT3, 10 to 25 µM on GLUT1 and 10 to 25 µM at GLUT4.
